From patent US7879838B2, “Heteroaryl substituted pyrazinyl-piperazine-piperidines with CXCR3 antagonist activity” (Schering Corporation, priority 2005, dated 2011)

Target: T1, Human CXCR3 (N-delta 4) (Homo sapiens, UniProt P49682)
T1 construct: CD8 leader (N); Flag tag; expressed in transfected cells; membranes prepared
T1 sequence (P49682 5-368 limits assumed): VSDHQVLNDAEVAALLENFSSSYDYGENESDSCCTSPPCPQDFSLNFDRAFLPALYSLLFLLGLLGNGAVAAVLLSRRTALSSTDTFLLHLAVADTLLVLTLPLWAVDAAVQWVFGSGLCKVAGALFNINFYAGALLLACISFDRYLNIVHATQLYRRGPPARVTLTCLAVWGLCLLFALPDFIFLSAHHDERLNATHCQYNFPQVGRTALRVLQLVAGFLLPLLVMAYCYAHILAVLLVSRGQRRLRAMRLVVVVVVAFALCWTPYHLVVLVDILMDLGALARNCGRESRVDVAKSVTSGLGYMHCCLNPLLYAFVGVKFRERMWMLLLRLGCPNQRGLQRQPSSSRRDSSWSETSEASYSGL
Test: Human CXCR3 (N-delta 4) scintillation proximity assay (SPA), [125I] IP-10 binding to Ba/F3-hCXCR3 membranes
From the text: The inventive compounds can readily be evaluated to determine activity at The CXCR3 receptors by known methods, such as, for example, Development of Human CXCR3 (N-delta 4) Binding Assay.
Cloning and Expression of Human CXCR3 (N-delta 4):
The DNA encoding human CXCR3 was cloned by PCR using human genomic DNA (Promega, Madison, Wis.) as a template. The PCR primers were designed based on the published sequence of human orphan receptor GPR9 (1) with incorporated restriction sites, a Kozak consensus sequence, CD8 leader and Flag tag. The PCR product was subcloned into the mammalian expression vector pME18Sneo, a derivative of the SR-alpha expression vector (designated as pME18Sneo-hCXCR3 (N-delta 4).
IL-3-dependent mouse pro-B cells Ba/F3 were transfected by electroporation in 0.4 ml Dulbecco's PBS containing 4×10^6 cells with 20 μg of pME18Sneo-hCXCR3 (N-delta 4) plasmid DNA. Cells were pulsed at 400 Volts, 100 OHMs, 960 μFd. The transfected cells were under selection with 1 mg/ml G418 (Life Technologies, Gaithersburg, Md.). G418-resistant Ba/F3 clones were screened for CXCR3 expression by specific binding of [^125I] IP-10 (NEN Life Science Products, Boston, Mass.).
Preparation of Ba/F3-hCXCR3 (N-delta 4) Membranes
Ba/F3 cells expressing human CXCR3 (N-delta 4) were pelleted and resuspended in the lysis buffer containing 10 mM HEPES, pH 7.5 and Complete® protease inhibitors (1 tablet per 100 ml) (Boehringer Mannheim, Indianapolis, Ind.) at a cell density of 20×10^6 cells per ml. After 5 minutes incubation on ice, cells were transferred to 4639 cell disruption bomb (Parr Instrument, Moline, Ill.) and applied with 1,500 psi of nitrogen for 30 minutes on ice. Large cellular debris was removed by centrifugation at 1,000×g. Cell membrane in the supernatant was sedimented at 100,000×g. The membrane was resuspended in the lysis buffer supplemented with 10% sucrose and stored at −80° C. Total protein concentration of the membrane was determined by BCA method from Pierce (Rockford, Ill.).
Human CXCR3 (N-delta 4) Scintillation Proximity Assay (SPA)
For each assay point, 2 μg of membrane was preincubated for 1 hr with 300 μg wheat germ agglutinin (WGA) coated SPA beads (Amersham, Arlington Heights, Ill.) in the binding buffer (50 mM HEPES, 1 mM CaCl2, 5 mM MgCl2, 125 mM NaCl, 0.002% NaN3, 1.0% BSA) at room temperature. The beads were spun down, washed once, resuspended in the binding buffer and transferred to a 96-well Isoplate (Wallac, Gaithersburg, Md.). 25 pM of [^125I] IP-10 with tested compounds in a series of titration were added to start the reaction. After 3 hr reaction at room temperature, the amount of [^125I] IP-10 bound to the SPA beads was determined with a Wallac 1450 Microbeta counter.
The Ki values for the various example compounds of the present invention are given in the afore-mentioned Table 1. From these values, it would be apparent to the skilled artisan that the compounds of the invention have excellent utility CXCR3 antagonists.

[1] = IC50 rating, 25 pM [125I] IP-10, membranes of Ba/F3 cells expressing human CXCR3 (N-delta 4)

Row | SMILES | IC50 [1] | IC50 (human CXCR3 (N-delta 4) SPA)
1 | CC[C@H]1CN(c2nc(N)c(C(=O)N[C@H]3CC[C@H]3O)nc2Cl)CCN1C1CCN(C(=O)c2ccc(Cl)nc2N)CC1 [Compound No. 15] | < 25 nM | 
2 | CC[C@H]1CN(c2ncc(C(=O)NC3CC3)nc2C)CCN1C1CCN(C(=O)c2ccc(Cl)nc2N)CC1 [Compound No. 155] | < 25 nM | 
3 | CC[C@H]1CN(c2nc(N)c(C(=O)NC[C@@H](C)O)nc2Cl)CCN1C1CCN(Cc2ccc(Cl)nc2N)CC1 [compound 2] | < 25 nM | 
4 | CC[C@H]1CN(c2nc(N)c(C(=O)NC3CC3)nc2Cl)CCN1C1CCN(C(=O)c2cc(F)c(Cl)nc2N)CC1 [compound 6] | < 25 nM | 
5 | CC[C@H]1CN(c2nc(N)c(C(=O)NCCO)nc2Cl)CCN1C1CCN(C(=O)c2ccc(Cl)nc2N)CC1 [compound 7] | < 25 nM | 
6 | CC[C@H]1CN(c2nc(N)c(C(=O)NC[C@@H](C)O)nc2Cl)CCN1C1CCN(C(=O)c2ccc(Cl)nc2N)CC1 [compound 8] | < 25 nM | 
7 | CC[C@H]1CN(c2ncc(C(=O)NC[C@@H](C)O)nc2Cl)CCN1C1CCN(C(=O)c2ccc(Cl)nc2N)CC1 [compound 11] | < 25 nM | 
8 | CC[C@H]1CN(c2nc(N)c(C(=O)NC(=N)NC(C)=O)nc2Cl)CCN1C1CCN(C(=O)c2ccc(Cl)nc2N)CC1 [compound 14] | < 25 nM | 
9 | CC[C@H]1CN(c2nc(N)c(C(=O)NC3CC3)nc2Cl)CCN1C1CCN(C(=O)c2ccc(Cl)nc2Cl)CC1 [compound 19] | < 25 nM | 
10 | CC[C@H]1CN(c2nc(N)c(C(=O)NCCO)nc2Cl)CCN1C1CCN(Cc2ccc(Cl)nc2)CC1 [compound 20] | < 25 nM | 
11 | CC[C@H]1CN(c2nc(N)c(C(=O)NCC3CC3)nc2Cl)CCN1C1CCN(C(=O)c2ccc(Cl)nc2N)CC1 [compound 21] | < 25 nM | 
12 | CC[C@H]1CN(c2nc(N)c(C(=O)NCCO)nc2Cl)CCN1C1CCN(C(=O)c2cc(F)c(Cl)nc2Cl)CC1 [compound 22] | < 25 nM | 
13 | CC[C@H]1CN(c2nc(N)c(C(=O)NC3(CO)CC3)nc2Cl)CCN1C1CCN(C(=O)c2ccc(Cl)nc2N)CC1 [compound 24] | < 25 nM | 
14 | CC[C@H]1CN(c2nc(N)c(C(=O)Nc3ncc[nH]3)nc2Cl)CCN1C1CCN(C(=O)c2ccc(Cl)nc2N)CC1 [compound 28] | < 25 nM | 
15 | CC[C@H]1CN(c2nc(NCCC(=O)OC)c(C(=O)NC3CC3)nc2Cl)CCN1C1CCN(C(=O)c2ccc(Cl)nc2N)CC1 [compound 30] | < 25 nM | 
16 | CC[C@H]1CN(c2nc(N)c(C(=O)NCC3(O)CC3)nc2Cl)CCN1C1CCN(C(=O)c2ccc(Cl)nc2N)CC1 [compound 32] | < 25 nM | 
17 | CC[C@H]1CN(c2nc(N)c(C(=O)Nc3ccon3)nc2Cl)CCN1C1CCN(C(=O)c2ccc(Cl)nc2N)CC1 [compound 33] | < 25 nM | 
18 | CC[C@H]1CN(c2nc(N)c(C(=O)NCCNS(C)(=O)=O)nc2Cl)CCN1C1CCN(Cc2ccc(Cl)nc2N)CC1 [compound 34] | < 25 nM | 
19 | CC[C@H]1CN(c2nc(N)c(C(=O)N[C@@H]3C[C@@H]3F)nc2Cl)CCN1C1CCN(C(=O)c2ccc(Cl)nc2N)CC1 [compound 37] | < 25 nM | 
20 | CC[C@H]1CN(c2nc(NC(=O)N(C)C)c(C(=O)NC3CC3)nc2Cl)CCN1C1CCN(C(=O)c2ccc(Cl)nc2N)CC1 [compound 38] | < 25 nM | 
21 | CC[C@H]1CN(c2nc(N)c(C(=O)NCCO)nc2Cl)CCN1C1CCN(Cc2ccc(OC)nc2)CC1 [compound 39] | < 25 nM | 
22 | CC[C@H]1CN(c2nc(N)c(C(N)=O)nc2Cl)CCN1C1CCN(C(=O)c2cc(F)c(Cl)nc2N)CC1 [compound 41] | < 25 nM | 
23 | CC[C@H]1CN(c2nc(N)c(C(=O)N[C@H]3CCC[C@@H]3O)nc2Cl)CCN1C1CCN(C(=O)c2ccc(Cl)nc2N)CC1 [compound 42] | < 25 nM | 
24 | CC[C@H]1CN(c2nc(N)c(C(=O)NC)nc2Cl)CCN1C1CCN(C(=O)c2ccc(Cl)nc2Cl)CC1 [compound 43] | < 25 nM | 
25 | CC[C@H]1CN(c2nc(N)c(C(=O)NC)nc2Cl)CCN1C1CCN(C(=O)c2cc(F)c(Cl)nc2Cl)CC1 [compound 45] | < 25 nM | 
26 | CCNC(=O)NCc1nc(Cl)c(N2CCN(C3CCN(C(=O)c4ccc(Cl)nc4N)CC3)[C@@H](CC)C2)nc1N [compound 47] | < 25 nM | 

Second part, the compound after the results:

Row | IC50 [1] | IC50 (human CXCR3 (N-delta 4) SPA) | SMILES
27 | < 25 nM | 0.7 nM | CC[C@H]1CN(c2nc(N)c(C(=O)NC(=N)NC)nc2Cl)CCN1C1CCN(C(=O)c2ccc(Cl)nc2N)CC1 [Compound No. 1]
28 | < 25 nM |  | CCNC(=N)NC(=O)c1nc(Cl)c(N2CCN(C3CCN(C(=O)c4ccc(Cl)nc4N)CC3)[C@@H](CC)C2)nc1N [Compound No. 5]
29 | 25 to 100 nM |  | CC[C@H]1CN(c2nc(N)c(C(=O)OC)nc2Cl)CCN1C1CCN(C(=O)c2ccc(Cl)nc2N)CC1 [Compound No. 58]
30 | < 25 nM |  | CCNC(=O)c1nc(C)c(N2CCN(C3CCN(C(=O)c4ccc(Cl)nc4N)CC3)[C@@H](CC)C2)nc1N [Compound No. 156]
31 | < 25 nM |  | CC[C@H]1CN(c2nc(N)c(C(=O)NC3CC3)nc2C)CCN1C1CCN(C(=O)c2ccc(Cl)nc2N)CC1 [Compound No. 157]
32 | < 25 nM |  | CC[C@H]1CN(c2nc(N)c(C(=O)NC(=N)N)nc2Cl)CCN1C1CCN(C(=O)c2ccc(Cl)nc2N)CC1 [compound 3]
33 | < 25 nM |  | CC[C@H]1CN(c2nc(N)c(C(=O)NC3CC3)nc2Cl)CCN1C1CCN(C(=O)c2ccc(Cl)nc2N)CC1 [compound 4]
34 | < 25 nM |  | CC[C@H]1CN(c2nc(N)c(C(=O)N[C@@H]3CC[C@@H]3O)nc2Cl)CCN1C1CCN(C(=O)c2ccc(Cl)nc2N)CC1 [compound 9]
35 | < 25 nM |  | CC[C@H]1CN(c2ncc(C(N)=O)nc2Cl)CCN1C1CCN(C(=O)c2ccc(Cl)nc2N)CC1 [compound 10]
36 | < 25 nM |  | CC[C@H]1CN(c2nc(N)c(C(=O)NCC(F)(F)F)nc2Cl)CCN1C1CCN(C(=O)c2ccc(Cl)nc2N)CC1 [compound 12]
37 | < 25 nM |  | CC[C@H]1CN(c2nc(N)c(C(=O)NC)nc2Cl)CCN1C1CCN(C(=O)c2cc(F)c(Cl)nc2N)CC1 [compound 13]
38 | < 25 nM |  | CC[C@H]1CN(c2nc(N)c(C(=O)NC3CC3)nc2Cl)CCN1C1CCN(C(=O)c2cc(F)c(Cl)nc2Cl)CC1 [compound 16]
39 | < 25 nM |  | CC[C@H]1CN(c2nc(NCCOC)c(C(=O)NC3CC3)nc2Cl)CCN1C1CCN(C(=O)c2ccc(Cl)nc2N)CC1 [compound 17]
40 | < 25 nM |  | CC[C@H]1CN(c2nc(N)c(C(=O)N[C@@H]3CCC[C@H]3O)nc2Cl)CCN1C1CCN(C(=O)c2ccc(Cl)nc2N)CC1 [compound 18]
41 | < 25 nM |  | CC[C@H]1CN(c2nc(N)c(C(=O)NCC(C)O)nc2Cl)CCN1C1CCN(C(=O)c2ccc(Cl)nc2N)CC1 (stereo partly shown) [compound 25]
42 | < 25 nM |  | CC[C@H]1CN(c2nc(N)c(C(=O)NCCC#N)nc2Cl)CCN1C1CCN(C(=O)c2ccc(Cl)nc2N)CC1 [compound 26]
43 | < 25 nM |  | CC[C@H]1CN(c2nc(N)c(C(=O)NC3CCCC3O)nc2Cl)CCN1C1CCN(C(=O)c2ccc(Cl)nc2N)CC1 (stereo partly shown) [compound 27]
44 | < 25 nM |  | CC[C@H]1CN(c2nc(N)c(C(=O)NCCO)nc2Cl)CCN1C1CCN(Cc2ccc(Cl)nc2Cl)CC1 [compound 29]
45 | < 25 nM |  | CC[C@H]1CN(c2nc(N)c(C(N)=O)nc2Cl)CCN1C1CCN(Cc2ccc(Cl)nc2N)CC1 [compound 31]
46 | < 25 nM |  | CC[C@H]1CN(c2nc(N)c(C(N)=O)nc2Cl)CCN1C1CCN(C(=O)c2ccc(Cl)nc2N)CC1 [compound 35]
47 | < 25 nM |  | CC[C@H]1CN(c2nc(N)c(C(=O)NCCO)nc2Cl)CCN1C1CCN(C(=O)c2ccc(Cl)nc2Cl)CC1 [compound 40]
48 | < 25 nM |  | CC[C@H]1CN(c2nc(N)c(C(=O)NC)nc2Cl)CCN1C1CCN(C(=O)c2ccc(Cl)nc2)CC1 [compound 44]
